Test results from patent US9629822B2, “Flavonoid based antiviral targets” (UNIVERSITY OF CENTRAL FLORIDA RESEARCH FOUNDATION, INC., priority 2012, dated 2017).
Like-named read-outs stand apart in the source and are kept apart here.

Assays:
HIV-1 BaL = test: Anti-HIV assay (luciferase, HIV-1 BaL infection); format: cell-based
Method in brief: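 Cells infected with HIV-1 BaL at 2 ng/mL p24 (MOI approx 0.02) in compound presence. Infection read out by luciferase.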

[1] = TZMbI assay for cell safety (cell viability and growth, CytoTox Glo); settings: human, TZMbI cells, read-out: % decrease in viability compared to 0.1% DMSO vehicle based on viable cell luminescence
Protocol: Assays were performed below in accordance with the procedures set forth in The Journal of Immunology, 2006, 176, pp. 6900-905; AIDS Research and Human Retroviruses, 2004, 20:11, pp. 1157-1665.^32,33 TZMbI assays for cell safety were performed to identify potential anti-viral compounds. TZMbI assays for cell safety were performed to identify potential anti-viral compounds per the methods.

[2] = 10 μM, Experiment 1B, 2 ng/mL p24 HIV-1 BaL
[3] = Human immunodeficiency virus 1, BAL, 1.25 μM, Experiment 2B
[4] = Human immunodeficiency virus 1, BAL, 2.5 μM, Experiment 2B
[5] = Human immunodeficiency virus 1, BAL, 5 μM, Experiment 2B
[6] = Human immunodeficiency virus 1, BAL, 10 μM, Experiment 1B, 2 ng/mL p24 HIV-1 BaL
[7] = Human immunodeficiency virus 1, BAL, 10 μM, Experiment 2B
[8] = Human immunodeficiency virus 1, BAL, 20 μM, Experiment 2B
[9] = Human immunodeficiency virus 1, BAL, 40 μM, Experiment 2B
[10] = Human immunodeficiency virus 1, BAL, 80 μM, Experiment 2B

SMILES | RLU (relative luciferase units) (HIV-1 BaL; 1.25 μM, Experiment 2B) [RLU] | RLU (relative luciferase units) (HIV-1 BaL; 2.5 μM, Experiment 2B) [RLU] | RLU (relative luciferase units) (HIV-1 BaL; 5 μM, Experiment 2B) [RLU] | RLU (relative luciferase units) (HIV-1 BaL; [2]) [RLU] | RLU (relative luciferase units) (HIV-1 BaL; 10 μM, Experiment 2B) [RLU] | RLU (relative luciferase units) (HIV-1 BaL; 20 μM, Experiment 2B) [RLU] | inhibition at 1.25 µM (HIV-1 BaL; [3]) [%] | inhibition at 2.5 µM (HIV-1 BaL; [4]) [%] | inhibition at 5 µM (HIV-1 BaL; [5]) [%] | inhibition at 10 µM (HIV-1 BaL; [6]) [%] | inhibition at 10 µM (HIV-1 BaL; [7]) [%] | inhibition at 20 µM (HIV-1 BaL; [8]) [%] | cytotoxicity at 1.25 μM ([1]; Experiment 2A) [%] | cytotoxicity at 2.5 μM ([1]; Experiment 2A) [%] | cytotoxicity at 5 μM ([1]; Experiment 2A) [%] | cytotoxicity at 10 μM ([1]; Experiment 1A) [%] | cytotoxicity at 10 μM ([1]; Experiment 2A) [%] | cytotoxicity at 20 μM ([1]; Experiment 2A) [%] | melting point [°C] | other results
COc1ccc(Br)cc1/C=C/C(=O)c1c(O)cccc1OCc1ccccc1 [Compound 8l, (E)-1-(2-(Benzyloxy)-6-hydroxyphenyl)-3-(5-bromo-2-methoxyphenyl)prop-2-en-1-one] | 262.26 | 215.14 | 125.95 | 57.3 | 23.18 | 16.87 | -0.55 | 17.2 | 54.4 | 93.9 | 91.5 | 94.7 | -2.83 | -0.43 | 2.2 | 29.8 | 28.7 | 55.2 |  | IC50 (HIV-1 BaL; Human immunodeficiency virus 1, BAL, inferred from 54.36% inhibition at 5 μM): < 5 µM
COc1ccc(Br)cc1/C=C/C(=O)c1ccc2ccccc2c1O [Compound 8m, (E)-3-(5-bromo-2-methoxyphenyl)-1-(1-hydroxynaphthalen-2-yl)prop-2-en-1-one] | 324.10 | 283.48 | 251.02 | 437.6 | 170.42 | 160.21 | -24.3 | -9.08 | 9.04 | 53.3 | 37.7 | 49.9 | 10.3 | 17.9 | 10.7 | 20.3 | 38.2 | 90 | 117 to 127 | 
COc1ccccc1-c1oc2ccccc2c(=O)c1O [Compound 9a, 3-Hydroxy-2-(2-methoxyphenyl)-4H-chromen-4-one] |  |  | 16.52 |  | 16.51 | 36.83 |  |  | -3.31 |  | -24.9 | -21.9 |  |  | -3.31 |  | -24.9 | -21.6 |  | RLU (relative luciferase units) (HIV-1 BaL; 40 μM, Experiment 2B): 65.50 RLU; RLU (relative luciferase units) (HIV-1 BaL; 80 μM, Experiment 2B): 59.24 RLU; inhibition at 40 µM (HIV-1 BaL; [9]): -25.4%; inhibition at 80 µM (HIV-1 BaL; [10]): -7.86%; cytotoxicity at 40 μM ([1]; Experiment 2A): -25.4%; cytotoxicity at 80 μM ([1]; Experiment 2A): -7.86%
COc1ccc(Br)cc1-c1oc2ccccc2c(=O)c1O [Compound 9b, 2-(5-Bromo-2-methoxyphenyl)-3-hydroxy-4H-chromen-4-one] |  |  | 12.99 | 736.7 | 23.85 | 32.82 |  |  | -7.08 | 21.3 | -19 | -25.9 |  |  | -7.08 | -2.1 | -19 | -25.9 | 159 to 161 | RLU (relative luciferase units) (HIV-1 BaL; 40 μM, Experiment 2B): 47.61 RLU; RLU (relative luciferase units) (HIV-1 BaL; 80 μM, Experiment 2B): 73.47 RLU; inhibition at 40 µM (HIV-1 BaL; [9]): -29.8%; inhibition at 80 µM (HIV-1 BaL; [10]): 13.3%; cytotoxicity at 40 μM ([1]; Experiment 2A): -29.8%; cytotoxicity at 80 μM ([1]; Experiment 2A): 13.3%
COc1ccc(Cl)cc1-c1oc2ccccc2c(=O)c1O [Compound 9h, 2-(5-chloro-2-methoxyphenyl)-3-hydroxy-4H-chromen-4-one] | 1.61 | 16.44 | 18.32 | 367.6 | 49.04 | 20.14 | -8.02 | -10.4 | -13.9 | 60.7 | 1.57 | 7.83 | -8.02 | -10.4 | -13.9 | 23.6 | 1.57 | 7.83 | 160 to 167 | 
COc1ccccc1-c1cc(=O)c2c(O)cccc2o1 [Compound 12a, 5-Hydroxy-2-(2-methoxyphenyl)-4H-chromen-4-one] | −3.22 | 28.09 | 56.78 | 152.1 | 83.62 | 88.46 | 6.38 | 41.7 | 123 | 83.7 | 43 | 131 | 6.38 | 41.7 | 123 | 44.5 | 43 | 131 |  | 
COc1ccc(Br)cc1-c1cc(=O)c2c(O)cccc2o1 [Compound 12b, 2-(5-Bromo-2-methoxyphenyl)-5-hydroxy-4H-chromen-4-one] | −7.32 | 0.82 | −1.73 | 445.1 | 27.57 | 36.35 | -8.84 | -2.4 | -3.2 | 52.4 | 10.4 | 49.1 | -8.84 | -2.4 | -3.2 | 34.9 | 10.4 | 49.1 | 175 to 180 | 
